Results: US12102640B2, “Use of dopamine and serotonin receptor antagonists for treatment in a subject with retinal degeneration” (United States Government as represented by the Department …, priority 2015, dated 2024)
“Also recorded” adds a separate entry of the source.

What was measured:
P23H rat RGCs = assay: Light sensitivity (intensity-response functions) of RGCs in isolated P23H rat retina, extracellular recording; format: cell-based; settings: for number of RGCs tested whose sensitivity was increased / average lowering of light intensity (increase in light sensitivity): P23H rat RGCs; for number of RGCs tested whose sensitivity was increased: one cell per retina; for average lowering of light intensity (increase in light sensitivity): difference of means before vs during drug; for light intensity at which the pre-drug half-maximum response was obtained in the presence of the drug, average: mean±SD of P23H rat RGCs (n=4-12), 100 ms flashes, concentration not given; for increase in light sensitivity of the representative RGC / light intensity that evoked the pre-drug half-maximum response with application of the drug, representative RGC: single representative P23H rat RGC; for light intensity that evoked the pre-drug half-maximum response with application of the drug, representative RGC: bath applied ~10 min, relative to 8.5×10^17 photons/cm^2/s
Procedure: P23H-line 1 homozygous rats (age range 22-37 weeks) were used. Breeding pairs of P23H-line 1 homozygous rats were generously donated by Dr. Matthew LaVail (University of California San Francisco, CA). The room light was kept on a 12 hr light/dark cycle using standard fluorescent lighting. During the light cycle, the illumination at the level of the cages was 100-200 lux.
(§1) On the day of an experiment, a rat was euthanized with sodium pentobarbital (150 mg/kg, i.p.), and the eyes were removed and hemisected under normal room light. After removal of the vitreous humour from each eye, one eyecup was transferred to a holding vessel containing bicarbonate-buffered Ames medium (Sigma-Aldrich), which was continuously gassed at room temperature with 5% CO2/95% O2. The retina of the other eyecup was gently peeled from the retinal pigment epithelium/choroid and trimmed into a square of ˜12 mm^2. The retina was then placed photoreceptor side down in a small volume (0.1 ml) chamber. The chamber was mounted on a fixed-stage upright microscope (Nikon Eclipse E600FN), and the retina superfused at 1.5 ml/min with bicarbonate-buffered Ames medium supplemented with 2 mg/ml D-(+) glucose and equilibrated with 5% CO2/95% O2. An in-line heating device (Warner Instruments) was used to maintain recording temperature at 35-36° C. The retina of the other eyecup was used later in the day.
(§2) Electrical Recording: Action potentials (spikes) were recorded extracellularly from individual RGCs. With the aid of red light (>630 nm) that was delivered from below the chamber, the tip of a glass insulated platinum/tungsten microelectrode (0.6-1.0 MΩ impedance; Thomas Recording GmbH, Germany) was visually advanced to the retinal surface with a motor-driven micromanipulator. Extracellular potentials from RGCs were amplified and bandpass filtered at 100 to 5000 Hz by a differential amplifier (Xcell-3; FHC, Bowdoin, ME). […] Spikes from single RGCs were converted to standard transistor to transistor logic (TTL) pulses with a time-amplitude window discriminator (APM Neural Spike Discriminator, FHC). A laboratory data acquisition system (1401 Processor and Spike2 software; Cambridge Electronic Design Ltd., Cambridge, UK) was used to digitize the TTL pulses and raw spike train data.
(§3) Light from a mercury arc lamp illuminated an aperture that was focused on the retina from above, through the 4× objective of the microscope. The image produced on the retina was either a 250-μm or 1.5-mm diameter spot, which was centered on the recorded RGC. In the light path was a 545 nm interference filter (bandwidth, 30 nm). The intensity of the unattenuated light stimulus on the retina, measured with a spectroradiometer (ILT900-R, International Light Technologies), was 8.5×10^17 photons/cm^2/s. Light intensities are expressed herein in log units relative to the unattenuated light intensity. An electromechanical shutter (Uniblitz, Rochester, NY) was used to control the stimulus duration, which was set to 100 ms in constructing intensity response curves. During recordings from RGCs, light flashes were presented with interstimulus intervals of 3-15 s (depending upon the duration and intensity of the light stimulus) to avoid any adapting effect of the previous flash. All experiments were performed in a dimly lighted room (10 lux).
(−)-Sulpiride was purchased from Tocris Bioscience (Minneapolis, MN). Sulpiride was dissolved in a small amount of dimethylsulphoxide (DMSO) and diluted in physiological saline. The drug solution was applied to the bathing solution using a calibrated syringe pump (Razel Scientific Instruments). Drug was bath applied for ˜10 min to ensure stable responses before effects were examined. Only one cell was studied in each retina to avoid possible residual drug effects.
Intensity-response curves were generated from the responses of RGCs to 100 ms flashes of light. The light stimulus was either a 250-μm or 1.5-mm diameter spot. […]

[1] = test system: long-latency ON-center P23H rat RGC; assay: Light responses of long-latency ON-center RGCs to a 250-μm spot (spike rasters, PSTHs); format: cell-based; settings: sulpiride 12 µM, clozapine 5 μM, aripiprazole 5 μM, eticlopride 1 µM, MDL-100907 640 nM
Procedure: as §1, §2, §3
(−)-Sulpiride and clozapine were purchased from Tocris Bioscience (Minneapolis, MN). Aripiprazole was purchased from Sigma-Aldrich (St. Louis, MO). Sulpiride and clozapine were dissolved in a small amount of dimethylsulphoxide (DMSO) and diluted in physiological saline. Aripiprazole was dissolved in a small amount of 1 mM HCl and diluted in physiological saline. As in Example 1, the drug solutions were applied to the bathing solution using calibrated syringe pumps (Razel Scientific Instruments). Drugs were bath applied for ˜10 min to ensure stable responses before effects were examined. Only one cell was studied in each retina to avoid possible residual drug effects. P23H rat RGCs were identified as either ON-center or OFF-center cells from their responses to a 500-700 ms flash of a small (250-μm diameter) spot of light centered over the receptive field. ON-center cells elicit an excitatory response to the onset but not to the offset of the spot of light, whereas OFF-center cells elicit an excitatory response to the offset of the spot of light. […]

OFF-center P23H rat RGC = assay: Light responses of OFF-center RGCs that show a long-latency ON response; format: cell-based; settings: 250-μm spot; sulpiride 9 µM, aripiprazole 5 µM
Procedure: as §1, §2
as §3, with “During recordings from RGCs, light flashes were presented with interstimulus intervals of 3-15 s (depending upon the duration and intensity of the light stimulus) to avoid any adapting effect of the previous flash. All experiments were performed in a dimly lighted room (10 lux).” left out

[2] = test system: D2 and D3 receptors over D4 receptors; settings: compared with sulpiride; cited from earlier work
[3] = pooled data of MDL-100907 and SB-242084, 6 P23H rat RGCs
[4] = sulpiride 13 µM, L-745,870 1 µM
[5] = eticlopride 1 μM, 6 P23H rat RGCs

Structure (SMILES) | number of RGCs tested whose sensitivity was increased (P23H rat RGCs) | average lowering of light intensity (increase in light sensitivity) (P23H rat RGCs) [log unit] | light intensity at which the pre-drug half-maximum response was obtained in the presence of the drug, average (P23H rat RGCs) [log units attenuation] | effect on the OFF response [1] | effect on the long-latency ON response [1] | other results
O=C(CCCN1CCC(O)(c2ccc(Cl)cc2)CC1)c1ccc(F)cc1 [haloperidol] | all 4 | 0.28 | −3.39±0.43 | – | – | –
CCN1CCCC1CNC(=O)c1cc(S(=O)(=O)CC)c(N)cc1OC (stereo not drawn) [amisulpride] | all 5 | 0.39 | −3.67±0.30 | – | – | –
COc1cccc([C@H](O)C2CCN(CCc3ccc(F)cc3)CC2)c1OC [MDL-100907] | – | – | – | appeared; also recorded: brought out an OFF response | abolished; also recorded: eliminated | average increase in sensitivity, pooled 5-HT2 antagonists (P23H rat RGCs; [3]): 0.25 log unit; average light sensitivity during drug, pooled 5-HT2 antagonists (P23H rat RGCs; [3]): −3.25 log units
CCN1CCC[C@H]1CNC(=O)c1cc(S(N)(=O)=O)ccc1OC [sulpiride, (−)-Sulpiride] | 8 of the 9 | 0.29 | −3.17±0.27 | appeared; also recorded: brought out an OFF response | abolished; also recorded: eliminated | effect on the OFF response (OFF-center P23H rat RGC): remained intact; also recorded: spared; effect on the delayed (long-latency) ON response (OFF-center P23H rat RGC): reduced; also recorded: diminished; shift of the intensity-response curve (P23H rat RGCs; single P23H rat RGC, sulpiride 13 µM, L-745,870 1 µM): to the left; increase in light sensitivity of the representative RGC (P23H rat RGCs; [4]): 0.44 log unit; light intensity that evoked the pre-drug half-maximum response with application of the drug, representative RGC (P23H rat RGCs; [4]): −3.47 log units attenuation
CN1CCN(C2=Nc3cc(Cl)ccc3Nc3ccccc32)CC1 [clozapine] | – | 0.30 | −3.56±0.55 | – | – | –
O=C1CCc2ccc(OCCCCN3CCN(c4cccc(Cl)c4Cl)CC3)cc2N1 [aripiprazole] | – | 0.27 | −3.54±0.36 | appeared; also recorded: brought out an OFF response | still present; also recorded: did not eliminate | effect on the OFF response (OFF-center P23H rat RGC): remained intact; also recorded: spared; effect on the delayed (long-latency) ON response (OFF-center P23H rat RGC): reduced; also recorded: eliminated
Cl.Cl.Cl.Clc1ccc(N2CCN(Cc3c[nH]c4ncccc34)CC2)cc1 [L-745,870, 3-(4-[4-Chlorophenyl]piperazin-1-yl)-methyl-1-H-pyrrolo[2,3-b]pyridinetrihydrochloride] | 11 of the 12 | 0.21 | −3.31±0.54 | – | – | increase in light sensitivity of the representative RGC (P23H rat RGCs; [4]): 0.34 log unit; light intensity that evoked the pre-drug half-maximum response with application of the drug, representative RGC (P23H rat RGCs; [4]): −3.69 log units attenuation
CCc1cc(Cl)c(OC)c(C(=O)NC[C@@H]2CCCN2CC)c1O [eticlopride, (−)-Eticlopride] | – | – | – | appeared; also recorded: brought out an OFF response | abolished; also recorded: eliminated | average increase in light sensitivity (P23H rat RGCs; [5]): 0.31 log unit; average light sensitivity during drug (P23H rat RGCs; [5]): −3.07 log units; cells showing an increase in light sensitivity (P23H rat RGCs; [5]): All cells; selectivity for D2 and D3 receptors over D4 receptors [2]: greater selectivity than sulpiride
